What all share (assay type): biochemical
For experiment [1], the target named is human TYK2 catalytic kinase (JH1) domain (Homo sapiens (Human), UniProt P29597). Briefly: ADP-Glo Kinase Assay, recombinant TYK2 catalytic kinase (JH1) domain. The following applies: recombinant JH1 domain 2 nM, 10 μM ATP, JAK3-974 peptide, mean, read-out: TYK2 biochem IC50 (nM) Mean. The method in brief: (§1)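 Enzyme levels: JAK1 4 nM, JAK2 0.2 nM, JAK3 0.3 nM, TYK2 2 nM. Peptide substrate at 50 μM. Reactions ran 100 minutes; ADP formed was converted to luciferase luminescence after ATP depletion. Compounds tested from 10 μM or 1 μM top, 11-point 3-fold dilutions; IC50 from 4-parameter logistic fit of normalized percent activity.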

In experiment [2] the target is human JAK3 catalytic kinase (JH1) domain (Homo sapiens (Human), UniProt P52333). Briefly: ADP-Glo Kinase Assay, recombinant JAK3 catalytic kinase (JH1) domain. The following applies: recombinant JH1 domain 0.3 nM, 4 μM ATP, JAK3-974 peptide, mean, read-out: JAK3 biochem IC50 (nM) Mean. The method in brief: as §1
For orientation: In ADP-Glo the light output rises with the ADP produced.

In experiment [3] the target is human JAK2 catalytic kinase (JH1) domain (Homo sapiens (Human), UniProt O60674). Briefly: ADP-Glo Kinase Assay, recombinant JAK2 catalytic kinase (JH1) domain. The following applies: recombinant JH1 domain 0.2 nM, 15 μM ATP, JAK3-974 peptide, mean, read-out: JAK2 biochem IC50 (nM) Mean. The method in brief: as §1
The target in experiment [4] is human JAK1 catalytic kinase (JH1) domain (Homo sapiens (Human), UniProt P23458). As to the kind of experiment: ADP-Glo Kinase Assay, recombinant JAK1 catalytic kinase (JH1) domain. The following applies: recombinant JH1 domain 4 nM, 35 μM ATP, JAK3-342 peptide, mean, read-out: JAK1 biochem IC50 (nM) Mean. The method in brief: as §1

The term IC50 denotes the concentration at which inhibition is half-maximal.

Chain of human TYK2 catalytic kinase (JH1) domain (P29597 897-1176): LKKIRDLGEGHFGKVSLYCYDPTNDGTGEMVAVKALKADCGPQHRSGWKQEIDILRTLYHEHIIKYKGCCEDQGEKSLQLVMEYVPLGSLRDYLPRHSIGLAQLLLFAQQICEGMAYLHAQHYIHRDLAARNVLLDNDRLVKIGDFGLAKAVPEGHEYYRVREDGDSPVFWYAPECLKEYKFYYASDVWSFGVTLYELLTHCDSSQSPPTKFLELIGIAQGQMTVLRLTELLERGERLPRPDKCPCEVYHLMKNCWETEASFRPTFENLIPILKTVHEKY
Chain of human JAK3 catalytic kinase (JH1) domain (P52333 822-1111): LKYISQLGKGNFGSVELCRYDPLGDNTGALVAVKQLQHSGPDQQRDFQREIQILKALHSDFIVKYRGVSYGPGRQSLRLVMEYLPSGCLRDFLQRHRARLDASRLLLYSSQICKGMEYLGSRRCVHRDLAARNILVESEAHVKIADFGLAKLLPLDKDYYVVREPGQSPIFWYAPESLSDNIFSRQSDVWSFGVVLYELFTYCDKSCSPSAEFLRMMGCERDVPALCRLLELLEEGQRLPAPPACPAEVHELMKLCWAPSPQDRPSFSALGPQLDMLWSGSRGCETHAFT
Chain of human JAK2 catalytic kinase (JH1) domain (O60674 849-1124): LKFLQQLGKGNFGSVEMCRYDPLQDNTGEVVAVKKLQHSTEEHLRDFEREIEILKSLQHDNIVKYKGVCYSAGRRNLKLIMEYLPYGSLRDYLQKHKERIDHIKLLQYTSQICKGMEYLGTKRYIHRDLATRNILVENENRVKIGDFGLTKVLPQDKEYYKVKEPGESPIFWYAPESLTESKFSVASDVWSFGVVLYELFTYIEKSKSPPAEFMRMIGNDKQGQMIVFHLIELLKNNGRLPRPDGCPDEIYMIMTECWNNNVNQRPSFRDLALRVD
Chain of human JAK1 catalytic kinase (JH1) domain (P23458 875-1153): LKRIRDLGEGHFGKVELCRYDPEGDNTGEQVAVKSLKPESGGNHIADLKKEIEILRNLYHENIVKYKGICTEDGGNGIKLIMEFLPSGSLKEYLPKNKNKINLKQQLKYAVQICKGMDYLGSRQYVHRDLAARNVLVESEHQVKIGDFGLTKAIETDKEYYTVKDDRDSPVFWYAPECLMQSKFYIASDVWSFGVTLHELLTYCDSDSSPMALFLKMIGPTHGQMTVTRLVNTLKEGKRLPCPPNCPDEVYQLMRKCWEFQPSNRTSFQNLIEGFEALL

In the case of `O=C([C@@H]1C[C@H]1F)N1C2CCC1CN(c1ccnn3cc(-c4cnn(C(F)F)c4)cc13)C2` [Example 17, (3-(6-(1-(difluoromethyl)-1H-pyrazol-4-yl)pyrrolo[1,2-b]pyridazin-4-yl)-3,8-diazabicyclo[3.2.1]octan-8-yl)((1S,2R)-2-fluorocyclopropyl)methanone], the IC50 in experiment [1] worked out at 1 nM; in experiment [2], 437 nM; in experiment [3] it was 36 nM; in experiment [4], 37 nM.

In the case of `O=C([C@H]1C[C@@H]1F)N1C2CCC1CN(c1ncnn3cc(-c4cnn(C(F)F)c4)cc13)C2` (single isomer, unassigned) [Example 75], the IC50 in experiment [1] is 456 nM; in experiment [2] it was 5060 nM; in experiment [3], not below 10000 nM; in experiment [4], 1580 nM.

Regarding `Cn1cc(-c2cc3c(N4CC5CCC(C4)N5C(=O)[C@H]4C[C@@H]4F)ncnn3c2)cn1` [Example 6, ((1R,2S)-2-fluorocyclopropyl)(3-(6-(1-methyl-1H-pyrazol-4-yl)pyrrolo[2,1-f][1,2,4]triazin-4-yl)-3,8-diazabicyclo[3.2.1]octan-8-yl)methanone], the IC50 in experiment [1] is 133 nM; in experiment [2] it was 827 nM; in experiment [3] it was 2260 nM; in experiment [4], 682 nM.

Regarding `COc1cc(-c2cc3c(N4CC5CCC(C4)N5C(=O)[C@@H]4C[C@H]4F)ncnc3[nH]2)ccn1` [Example 231, ((1S,2R)-2-fluorocyclopropyl)(3-(6-(2-methoxypyridin-4-yl)-7H-pyrrolo[2,3-d]pyrimidin-4-yl)-3,8-diazabicyclo[3.2.1]octan-8-yl)methanone], the IC50 is 12.4 nM in experiment [1], 877 nM in experiment [2], 307 nM in experiment [3] and 115 nM in experiment [4].

Regarding `CC(C)C(=O)N1C2CCC1CN(c1ncnn3cc(-c4cnn(C)c4)cc13)C2` [Example 58, 2-methyl-1-(3-(6-(1-methyl-1H-pyrazol-4-yl)pyrrolo[2,1-f][1,2,4]triazin-4-yl)-3,8-diazabicyclo[3.2.1]octan-8-yl)propan-1-one], the IC50 in experiment [1] worked out at 960 nM; in experiment [2] it was 10000 nM; in experiment [3] it was 10000 nM; in experiment [4] it was 10000 nM.

As for `Cn1cc(-c2nc3c(N4CC5CCC(C4)N5S(=O)(=O)C4CC4)ccnc3[nH]2)cn1` [Example 195], the IC50 was found to be 20.6 nM in experiment [1], 306 nM in experiment [2], 38 nM in experiment [3] and 194 nM in experiment [4].

Regarding `COc1cc(-c2cc3c(N4CC5CCC(C4)N5C(=O)[C@@H]4C[C@H]4F)ccnc3[nH]2)ccn1` [Example 245, ((1S,2R)-2-fluorocyclopropyl)(3-(2-(2-methoxypyridin-4-yl)-1H-pyrrolo[2,3-b]pyridin-4-yl)-3,8-diazabicyclo[3.2.1]octan-8-yl)methanone], the IC50 in experiment [1] is 0.4 nM; in experiment [2], 115 nM; in experiment [3], 11 nM; in experiment [4], 7 nM.

Turning to `Cn1cc(-c2cc3c(N4CC5CCC(C4)N5C(=O)[C@@H]4C[C@H]4F)ccnc3[nH]2)c(F)n1` [Example 244, (3-(2-(3-fluoro-1-methyl-1H-pyrazol-4-yl)-1H-pyrrolo[2,3-b]pyridin-4-yl)-3,8-diazabicyclo[3.2.1]octan-8-yl)((1S,2R)-2-fluorocyclopropyl)methanone], the IC50 turned out to be 0.2 nM in experiment [1], 73 nM in experiment [2], 4 nM in experiment [3] and 18 nM in experiment [4].

In the case of `O=C([C@@H]1C[C@H]1F)N1C2CCC1CN(c1ncnc3[nH]c(-c4ccnc(C(F)(F)F)c4)cc13)C2` [Example 223, ((1S,2R)-2-fluorocyclopropyl)(3-(6-(2-(trifluoromethyl)pyridin-4-yl)-7H-pyrrolo[2,3-d]pyrimidin-4-yl)-3,8-diazabicyclo[3.2.1]octan-8-yl)methanone], the IC50 came to 23.9 nM in experiment [1], 1620 nM in experiment [2], 352 nM in experiment [3] and 308 nM in experiment [4].

In the case of `Cn1cc(-c2nc3c(N4CC5CCC(C4)N5C(=O)C4CC4)ccnc3[nH]2)cn1` [Example 199, cyclopropyl(3-(2-(1-methyl-1H-pyrazol-4-yl)-3H-imidazo[4,5-b]pyridin-7-yl)-3,8-diazabicyclo[3.2.1]octan-8-yl)methanone], the IC50 in experiment [1] amounted to 6.2 nM; in experiment [2] it was 219 nM; in experiment [3], 56 nM; in experiment [4], 92 nM.

Turning to `CC(F)(F)C(=O)N1C2CCC1CN(c1ncnn3cc(-c4cnn(C(F)F)c4)cc13)C2` [Example 56, 1-(3-(6-(1-(difluoromethyl)-1H-pyrazol-4-yl)pyrrolo[2,1-f][1,2,4]triazin-4-yl)-3,8-diazabicyclo[3.2.1]octan-8-yl)-2,2-difluoropropan-1-one], the IC50 was determined as 233 nM in experiment [1], 1360 nM in experiment [2], 3340 nM in experiment [3] and 1140 nM in experiment [4].

In the case of `O=C([C@@H]1CC1(F)F)N1C2CCC1CN(c1ccnn3cc(-c4cnn(C(F)F)c4)cc13)C2` [Example 21, ((S)-2,2-difluorocyclopropyl)(3-(6-(1-(difluoromethyl)-1H-pyrazol-4-yl)pyrrolo[1,2-b]pyridazin-4-yl)-3,8-diazabicyclo[3.2.1]octan-8-yl)methanone], the IC50 in experiment [1] came to 1.4 nM; in experiment [2], 565 nM; in experiment [3] it was 28 nM; in experiment [4], 39 nM.

`O=C([C@@H]1C[C@H]1F)N1C2CCC1CN(c1ncnn3cc(-c4ccnc(C(F)F)c4)cc13)C2` [Example 93, (3-(6-(2-(difluoromethyl)pyridin-4-yl)pyrrolo[2,1-f][1,2,4]triazin-4-yl)-3,8-diazabicyclo[3.2.1]octan-8-yl)((1S,2R)-2-fluorocyclopropyl)methanone]: the IC50 was determined as 29.2 nM in experiment [1], 3300 nM in experiment [2], 591 nM in experiment [3] and 386 nM in experiment [4].

`O=C(C1CC1(F)F)N1C2CCC1CN(c1ncnn3cc(-c4cnn(C(F)F)c4)cc13)C2` (stereo not drawn) [Example 49, (2,2-difluorocyclopropyl)(3-(6-(1-(difluoromethyl)-1H-pyrazol-4-yl)pyrrolo[2,1-f][1,2,4]triazin-4-yl)-3,8-diazabicyclo[3.2.1]octan-8-yl)methanone]: the IC50 in experiment [1] is 81 nM; in experiment [2], 4900 nM; in experiment [3] it was 2100 nM; in experiment [4] it was 475 nM.

On to `Cn1cc(-c2cc3c(N4CC5CCC(C4)N5C(=O)C4CC(F)(F)C4)ncnn3c2)cn1` [Example 70, (3,3-difluorocyclobutyl)(3-(6-(1-methyl-1H-pyrazol-4-yl)pyrrolo[2,1-f][1,2,4]triazin-4-yl)-3,8-diazabicyclo[3.2.1]octan-8-yl)methanone], for which the IC50 in experiment [1] was determined as 382 nM; in experiment [2], 5090 nM; in experiment [3], 6360 nM; in experiment [4], 2430 nM.

Turning to `Cn1cc(-c2cc3c(N4CC5CCC(C4)N5C(=O)[C@H]4C[C@H]4F)ncnn3c2)cn1` (racemic) [Example 60, Rac-((1R,2R)-2-fluorocyclopropyl)(3-(6-(1-methyl-1H-pyrazol-4-yl)pyrrolo[2,1-f][1,2,4]triazin-4-yl)-3,8-diazabicyclo[3.2.1]octan-8-yl)methanone], the IC50 was determined as 563 nM in experiment [1], 3080 nM in experiment [2], 8090 nM in experiment [3] and 1340 nM in experiment [4].

Turning to `Cn1cc(-c2cc3c(N4CC5CCC(C4)N5C(=O)CC#N)ncnn3c2)cn1` [Example 62, 3-(3-(6-(1-methyl-1H-pyrazol-4-yl)pyrrolo[2,1-f][1,2,4]triazin-4-yl)-3,8-diazabicyclo[3.2.1]octan-8-yl)-3-oxopropanenitrile], the IC50 in experiment [1] turned out to be 351 nM; in experiment [2] it was 6830 nM; in experiment [3], 8710 nM; in experiment [4], 860 nM.

`O=C(C1CC1)N1C2CCC1CN(c1ncnn3cc(-c4cnn(C5CCOC5)c4)cc13)C2` (stereo not drawn) [Example 152]: the IC50 in experiment [1] was 145 nM; in experiment [2] it was 2590 nM; in experiment [3] it was 2150 nM; in experiment [4], 1670 nM.

Take `COc1cc(-c2nc3c(N4CC5CCC(C4)N5C(=O)[C@@H]4C[C@H]4F)ccnc3[nH]2)ccn1` [Example 203, ((1S,2R)-2-fluorocyclopropyl)(3-(2-(2-methoxypyridin-4-yl)-3H-imidazo[4,5-b]pyridin-7-yl)-3,8-diazabicyclo[3.2.1]octan-8-yl)methanone]: the IC50 was 7 nM in experiment [1], 578 nM in experiment [2], 42 nM in experiment [3] and 19 nM in experiment [4].

Take `CC(C)n1cc(-c2cc3c(N4CC5CCC(C4)N5C(=O)C4CC4)ncnn3c2)cn1` [Example 148]: the IC50 in experiment [1] amounted to 136 nM; in experiment [2], 2140 nM; in experiment [3] it was 1650 nM; in experiment [4], 731 nM.

As to `O=C([C@H]1CC1(F)F)N1C2CCC1CN(c1ncnn3cc(-c4cnn(C(F)F)c4)cc13)C2` [Example 8, ((R)-2,2-difluorocyclopropyl)(3-(6-(1-(difluoromethyl)-1H-pyrazol-4-yl)pyrrolo[2,1-f][1,2,4]triazin-4-yl)-3,8-diazabicyclo[3.2.1]octan-8-yl)methanone], the IC50 in experiment [1] came out at 200 nM; in experiment [2], 1690 nM; in experiment [3], 3740 nM; in experiment [4], 226 nM.

For the origin of these results see patent US20240360157A1, “TYK2 INHIBITORS” (BIOGEN MA INC., priority 2021, published 2024).
